Reference: paper PMC5453931, “Cathelicidin-trypsin inhibitor loop conjugate represents a promising antibiotic candidate with protease stability” (Scientific Reports, 2017)
In brackets after ≈: the same amount, converted by molar mass. Read-outs that look alike come from different tables or passages of the source. Where a SMILES comes first, the peptide text is derived from it.

Columns and labels:
Type in all cases: cell-based
[1] = test system: P. mirabilis; conditions: 18 h
Experimental: (§1) A two-fold broth microdilution method described in our previous paper was used to determine the antimicrobial activities of parental and hybrid peptides. More than 30 strains including Gram-negative bacteria, Gram-positive bacteria and fungi were used in the current assay, in which the standard strains were stored in our lab and the clinical strains were collected from local hospitals. Briefly, bacteria were incubated in Mueller-Hinton broth (MH broth) at 37 °C to exponential phase and diluted to 10^6 CFU/mL. A serial dilution of peptide sample were prepared in 96-well microtiter plates (50 μL) and mixed with equal volume of microbial inoculums (50 μL). The plate was slowly shaken in the microbial incubator, and measured at A595 after incubation at 37 °C for 18 h. The minimal concentrations at which no microbial growth occurred were recorded as MIC (minimal inhibitory concentration) values. The traditional antibiotic ampicillin was used as positive control. The results are shown in an average of the MICs obtained from three independent experiments.

[2] = test system: P. aeruginosa; conditions: 18 h
Experimental: as §1

[3] = test system: B. subtilis; conditions: 18 h
Experimental: as §1

[4] = test system: C. albican; conditions: 18 h
Experimental: as §1

[5] = test system: S. dysenteria; conditions: two-fold broth microdilution, MH broth, 37 °C, 18 h, A595; mean of three independent experiments in duplicate
Experimental: as §1

[6] = test system: E. coli; conditions: 18 h
Experimental: as §1

[7] = test system: S. aureus; conditions: 18 h
Experimental: as §1

[8] = two-fold broth microdilution, MH broth, 37 °C, A595, mean of three independent experiments in duplicate

With `CC[C@H](C)[C@H](NC(=O)[C@H](CC(C)C)NC(=O)[C@H](CCCNC(=N)N)NC(=O)[C@@H]1CCCN1C(=O)[C@H](CCCCN)NC(=O)[C@H](CCCCN)NC(=O)[C@H](CCCNC(=N)N)NC(=O)[C@H](Cc1ccccc1)NC(=O)[C@H](CCCCN)NC(=O)[C@H](CCCCN)NC(=O)[C@@H](NC(=O)[C@H](C)NC(=O)[C@H](CCCNC(=N)N)NC(=O)[C@H](CCCNC(=N)N)NC(=O)[C@@H](NC(=O)[C@H](CO)NC(=O)[C@H](CCCCN)NC(=O)[C@H](CC(C)C)NC(=O)[C@H](CC(C)C)NC(=O)[C@H](CCCNC(=N)N)NC(=O)[C@H](CCCCN)NC(=O)[C@H](Cc1ccccc1)NC(=O)[C@H](Cc1ccccc1)NC(=O)[C@@H](N)CCCCN)C(C)C)C(C)C)C(=O)NCC(=O)N[C@@H](CC(C)C)C(=O)N[C@@H](CO)C(=O)N[C@H](C(=O)N[C@@H](CC(C)C)C(=O)N[C@@H](CC(C)C)C(=O)O)[C@@H](C)O` [Hc-CATH, reference compound] (H-KFFKRLLKSVRRAVKKFRKKPRLIGLSTLL-OH) as the compound, how does the “MIC P. mirabilis” value [1, 8] read?
The value was 4.69 µg/mL (≈ 1.29 µM).

What about the “MIC P. aeruginosa” value [2, 8] of the same compound?
Its value is 18.75 µg/mL (≈ 5.17 µM).

And the “MIC B. subtilis” value [3, 8]?
Its value is 75 µg/mL (≈ 20.7 µM).

What about the “MIC C. albican” value [4, 8] of the same compound?
Its value is 4.69 µg/mL (≈ 1.29 µM).

What about the “MIC S. dysenteria” value [5] of the same compound?
Its value is 0.59 µg/mL (≈ 0.163 µM).

What about the “MIC E. coli” value [6, 8] of the same compound?
Its value is 2.34 µg/mL (≈ 0.645 µM).

And the “MIC S. aureus” value [7, 8]?
Its value is 4.69 µg/mL (≈ 1.29 µM).

How did the “MIC P. mirabilis” value [1] turn out when `CC(C)C[C@H](NC(=O)[C@H](CCCNC(=N)N)NC(=O)[C@H](CCCCN)NC(=O)[C@H](Cc1ccccc1)NC(=O)[C@H](Cc1ccccc1)NC(=O)[C@@H](N)CCCCN)C(=O)N[C@@H](CC(C)C)C(=O)N[C@@H](CCCCN)C(=O)N[C@@H](CO)C(=O)N[C@H](C(=O)N[C@@H](CCCNC(=N)N)C(=O)N[C@@H](CCCNC(=N)N)C(=O)N[C@@H](C)C(=O)N[C@H](C(=O)N[C@@H](CCCCN)C(N)=O)C(C)C)C(C)C` [Hc5] (H-KFFKRLLKSVRRAVK-NH2) was run?
Its value is 18.75 µg/mL (≈ 10 µM).

And the “MIC P. aeruginosa” value [2]?
The value was 75 µg/mL (≈ 40 µM).

And the “MIC B. subtilis” value [3]?
Its value is 150 µg/mL (≈ 80 µM).

What about the “MIC C. albican” value [4] of the same compound?
The value was 37.5 µg/mL (≈ 20 µM).

And the “MIC S. dysenteria” value [5]?
Its value is 4.69 µg/mL (≈ 2.5 µM).

And the “MIC E. coli” value [6]?
Its value is 37.5 µg/mL (≈ 20 µM).

And the “MIC S. aureus” value [7]?
Its value is 37.5 µg/mL (≈ 20 µM).
